“Also recorded” adds a separate entry of the source.

One assay relates to human Fuc-TIV. Put plainly: Fucosyltransferase reaction with lysates of CHO-cells transfected with human Fuc-TIV. Type of assay: biochemical. Particulars: for share of Fuc-TIV fucose transfer at the terminal (sialylated or non-reducing end) LN unit: residue 3 / terminal LN unit. On the procedure: (§1) Transfected Cells and Cell Lysates--The transfection of CHO-cells stably expressing human Fuc-TIV or Fuc-TVII has been described previously (Lowe, J. B., et al., J. Biol. Chem. 266:17467-17477 (1991); Natsuka, S., et al., J. Biol. Chem. 269:16789-16794 (1994)). For the enzyme assays, the cells were lysed in 1% Triton X-100 on ice in the presence of a mixture of protease inhibitors (16 μg/ml benzamidine HCl, 10 μg/ml phenanthroline, 10 μg/ml aprotinin, 10 μg/ml leupeptin, 10 μg/ml pepstatin A, 1 mM PMSF, Pharmingen, San Diego, Calif.).
(§2) Glycan 1 was from Sigma (St. Louis, Mo.), and glycan 2 from Oxford Glycosystems (Abingdon, UK). The others were synthesized enzymatically. Briefly, glycan 11 was constructed from GlcNAcβ1-3Galβ1-OMe (Sigma) by β1,4-galactosylation (Brew, K., et al., Proc. Natl. Acad Sci. USA 59:491-497 (1968)) followed by β1,3-N-acetylglycosaminylation (Seppo, A., et al., Biochem. Cell Biol. 68:44-53 (1990)) and a second round of β1-4-galactosylation. […] Glycan 3 was obtained from glycan 11 by α2,3-sialylation as in (Maaheimo, H., et al., Eur. J. Biochem. 234:616-625 (1995)). Glycan 12 was constructed from the GNβ1-3 'LNβ1-3 'LN (Leppanen, A., et al., Biochemistry 30:9287-9296(1991)) by β1,4-galactosylation, MALDI-TOF MS: (M+Na)^+ m/z 1137.1 (calc. 1137.0). Glycan 4 was obtained by glycan 12 by α2,3-sialylation. Glycan 15 was synthesized as in (Renkonen, O., et al., Biochem. Cell. Biol. 68:1032-1036 (1990)), MALDI-TOF MS: (M+Na)^+ m/z 1136.9 (calc. 1137.0). Glycan 16 was obtained by a 2,3-salylation of 15. In the synthesis of glycan 8, GNβ1-3'LNβ1-3'LN was α1,3 [^14 C]fucosylated at both LN units with α1,3/4-FucTs ofhuman milk and then β1,4-galactosylated. MALDI-TOF MS of the resulting octasaccharide LN β1-3'Lexβ1-3'Lex gave (M+Na)^+ m/z 1429.3 (calc. 1429.3). The octasaccharide was finally α2,3-sialylated to give glycan 8. Degradation of glycan 8 by sialidase and a mixture of β-galactosidaseand β-N-acetylhexosaminidase gave the neutral hexasaccharide [^14 C]Fucα1-3LNβ1-3'[^14 C]Fucα1-3LN, which chromatographed like an authentic marker on paper. In the synthesis of glycan 5, glycan 10 was converted to the pentasaccharide LNβ1-3 '(GNβ1-6 ')LN as in (Niemela, R., et al., Carbohydr. Res. 279:331-338 (1995); Maaheimo, H., et al., Carbohydr. Res. 297:53-59 (1997)), MALDI-TOF MS: (M+Na)^+ m/z 974.8 (calc. 974.9). The product was α2,3-sialylated, α1,3-fucosylated selectively at the distal, sialylated LN-unit (Niemela, R., et al., Carbohydr. Res. 279:331-338 (1995), and treated with β-N-acetylhexosaminidase for removal of the protecting β1-6GN-unit to give glycan 5. Glycan 6, in turn, was obtained by α1,3-fucosylating glycan 9 at the LN unit by human milk α1,3/4-Fuc-Ts. The product was then β1,4-galactosylated and finally α2,3-sialylated. Glycan 7 was synthesized by α2,3-sialylation of the heptasaccharide LNβ1-3'Lexβ1-3'LN,prepared by β1,4-galactosylation of GNβ1-3 'Lexβ1-3 'LN, which had been isolated from a mixture of monofucosylated isomers by wheat germ agglutinin (WGA)-agarose chromatography. LNβ1-3'Lexβ1-3'N was characterized by ^1 H-NMR-spectroscopy, MALDI-TOF MS: (M+Na)^+m/z 1282.5 (calc. 1282.5). Glycan 9 was obtained by β1,3-N-acetylglucosaminylation of LN (Seppo, A., et al., Biochem. Cell Biol. 68:44-53 (1990)), MALDI-TOF MS: (M+Na)^+ m/z 609.7 (calc. 609.5). Glycan 10 was synthesized by β1,4-galactosylation of glycan 9. Glycans 13 and 14 were obtained by separating monofucosylated derivatives of glycan 10 by WGA chromatography. Glycan 13, MALDI-TOF MS: (M+Na)^+ m/z 917.9 (calc. 917.8). Glycan 14, MALDI-TOF MS: (M+Na)^+ m/z 917.8 (calc. 917.8). […]

A further assay has as its system human Fuc-TVII. In words: Fucosyltransferase reaction with lysates of CHO-cells transfected with human Fuc-TVII. Type of assay: biochemical. The method, then:
as §1
as §2, with “chromatography.” for “chromatography. Glycan 13, MALDI-TOF MS: (M+Na)^+ m/z 917.9 (calc. 917.8). Glycan 14, MALDI-TOF MS: (M+Na)^+ m/z 917.8 (calc. 917.8).”

Assay [1] concerns rat lymphocyte L-selectin. In words: Stamper-Woodruff assay: in vitro lymphocyte adhesion to high endothelial venules (HEV) of peripheral rat lymph nodes. Type of assay: cell-based. On the procedure: The affinities of the glycans of the invention towards rat lymphocyte L-selectin were analyzed with the in vitro Stamper-Woodruff binding assay. […] The important control saccharides, carrying at the distal termini the fucose-free sLN-residues instead of the sLex-epitopes are consistently without any inhibitory effect.
Lymphocytes were isolated from mesenterical lymph nodes of WF or DA rats and used immediately in the assay after isolation and pretreatment. […] Lymphocytes were over 99% of purity as quantitated by cytocentrifuge preparations. […]
In the Stamper-Woodruff assay 3×10^6 lymphocytes in 100 μl of RPMI containing 0.5% FCS were put on a frozen section inside a 23 mm wax circle, and rotated for 30 min at +4° C. […] The number of bound lymphocytes was calculated per high endothelial venules and 50 to 100 vessels were identified from each sample. […]
Lymphocyte adhesion was studied in a well documented L-selectin-dependent Stamper-Woodruff assay where frozen sections of lymph nodes were prepared, lymphocytes were placed on top of them, adhesion was permitted on a rotator and the number of adherent cells were quantitated visually. […]

In the case of `CC(=O)N[C@H]1C(O)O[C@H](CO)[C@@H](O[C@@H]2O[C@H](CO)[C@H](O)[C@H](O)[C@H]2O)[C@@H]1O` (stereo partly shown) [glycan 1 (FIG. 8), N-acetyllactosamine, reference compound], the “fucosylation by Fuc-TIV, acceptor- and site-specificity (in words)” value (“fucosylation by Fuc-TIV” below) with human Fuc-TIV is given as “rapidly fucosylates”. Also, the “Transfer rate (reference acceptor)” value in the assay with human Fuc-TIV (reference acceptor for Fuc-TIV) was about 3.9 pmol/μg protein/h.

Take `CC(=O)N[C@H]1[C@H]([C@H](O)[C@H](O)CO)O[C@@](O[C@H]2[C@@H](O)[C@@H](CO)O[C@@H](O[C@H]3[C@H](O)[C@@H](NC(C)=O)C(O)O[C@@H]3CO)[C@@H]2O)(C(=O)O)C[C@@H]1O` (stereo partly shown) [glycan 2 (FIG. 8), SAα2-3 'LN, reference compound]: in the assay on human Fuc-TVII (reference acceptor for Fuc-TVII), the “Transfer rate (reference acceptor)” value is recorded as about 3.2 pmol/μg protein/h. Moreover, the “fucosylation by Fuc-TIV” value in the assay with human Fuc-TIV is given as “ineffective”.

Regarding LN1-3'LN1-3'LN [glycan 12 (FIG. 8)], in the assay on human Fuc-TIV, the “share of Fuc-TIV fucose transfer at the innermost / reducing end LN unit (residue 1)” value worked out at 28%, the “share of Fuc-TIV fucose transfer at the middle LN unit (residue 2)” value stood at 47% and the “share of Fuc-TIV fucose transfer at the terminal (sialylated or non-reducing end) LN unit” value (“share … (sialylated or non-reducing end) LN unit” for short) is 25%.

In the case of “LNβ1-3 'LNβ1-3'Galβ1-OMe [glycan 11 (FIG. 8)]”, in the assay on human Fuc-TIV, the “fucosylation by Fuc-TIV” value is “transferred efficiently”; the “share of Fuc-TIV fucose transfer at the middle LN unit (residue 2)” value came out at 67%; the “share … (sialylated or non-reducing end) LN unit” value stood at 33%.

Turning to LNβ1-3'Lex [glycan 14 (FIG. 8)], the “fucosylation by Fuc-TIV” value in the assay on human Fuc-TIV is “transferred rapidly”.

Turning to Lexβ1-3 'LN [glycan 13 (FIG. 8)], in the assay with human Fuc-TIV, the “fucosylation by Fuc-TIV” value is reported as “transferred rapidly”.

Consider “SAα2,3'LNβ1,3'LNβ1,3' (SAα2,3'LNβ1,3'LNβ1,6')LN [glycan 5]”, for which, in assay [1] (50 nM), the “effect on lymphocyte adhesion to HEV (in words)” value is on record as “no effect in lymphocyte binding to HEV”. For the same compound, the “effect on lymphocyte adhesion/binding to HEV (in words)” value in assay [1] (peripheral rat lymph node HEV) is given as “did not show inhibitory effects”.

As for “SAα2-3'LNβ1-3'LNβ1-3'LN [glycan 4 (FIG. 8)]”, in the assay on human Fuc-TVII, the “fucosylation by Fuc-TVII, acceptor- and site-specificity (in words)” value is given as “transfers preferentially to the sialylated, distal LN residue”. For the same compound, the “rate of Fuc-TVII transfer to the reducing end LN unit (residue 1), times slower than to the sialylated LN residue” value with human Fuc-TVII (residue 1 vs residue 3) was found to be 84 times slower. In addition, the “rate of Fuc-TVII transfer to the middle LN unit (residue 2), times slower than to the sialylated LN residue” value in the assay on human Fuc-TVII (residue 2 vs residue 3) worked out at 17 times slower. Further, the “fucosylation by Fuc-TIV” value in the assay with human Fuc-TIV is recorded as “efficiently fucosylates; also recorded: transfers rapidly to sialoglycan 4, at both "inner" LN units; also recorded: efficient conversion of glycan 4 to glycan 8 in two steps catalyzed by Fuc-TIV, but not by Fuc-TVII”. Moreover, the “rate of Fuc-TIV transfer to the sialylated LN unit (residue 3), times slower than to both inner LN units” value with human Fuc-TIV (residue 3 vs residues 1 and 2) is 30-40 times slower.

On to “SAα2-3'LNβ1-3'Lexβ1-3'LN [glycan 7 (FIG. 8)]”, for which, in the assay with human Fuc-TIV, the “fucosylation by Fuc-TIV” value is given as “effectively utilizes”; the “share of Fuc-TIV fucose transfer at the innermost / reducing end LN unit (residue 1)” value was determined as 86%; the “share … (sialylated or non-reducing end) LN unit” value is on record as “Less than 5%”.

Consider “SAα2-3'LNβ1-3Lex β1-3'[^14 C]Lex [glycan 8 (FIG. 8)]”, for which, in the assay with human Fuc-TVII, the “fucosylation by Fuc-TVII, acceptor- and site-specificity (in words)” value is “nearly as rapidly as glycan 2”. Besides, in the assay on human Fuc-TIV, the “fucosylation by Fuc-TIV” value is given as “ineffective”. For the same compound, the “rate of Fuc-TIV reaction as % of the rate catalyzed by Fuc-TVII” value in the assay with human Fuc-TIV (transfer to distal sialylated LN unit giving SAα2-3'Lexβ1-3'Lexβ1-3'Lex) is on record as 6-7%.
